Laboratory results from ChEMBL document CHEMBL4831486, “Design, synthesis and biological evaluation of pleuromutilin-Schiff base hybrids as potent anti-MRSA agents in vitro and in vivo” (Eur J Med Chem, 2021).
Converted amounts (≈) assume the structure as drawn.

How the values were obtained:
[1] = test system: Staphylococcus aureus; test: Antibacterial activity against Staphylococcus aureus AD3 assessed as inhibition of bacterial growth measured after 24 hrs by broth dilution method; format: functional
[2] = test system: Staphylococcus aureus; test: Bactericidal activity against Methycillin-resistant Staphylococcus aureus ATCC 43300 assessed as inhibition of bacterial growth measured after 96 hrs by broth dilution method; format: functional
[3] = test system: Staphylococcus aureus; test: Antibacterial activity against Staphylococcus aureus 144 assessed as inhibition of bacterial growth measured after 24 hrs by broth dilution method; format: functional
[4] = test system: Staphylococcus aureus; test: Bactericidal activity against Staphylococcus aureus 144 assessed as inhibition of bacterial growth measured after 96 hrs by broth dilution method; format: functional
[5] = test system: Escherichia coli; test: Bactericidal activity against Escherichia coli ATCC 25922 assessed as inhibition of bacterial growth measured after 96 hrs by broth dilution method; format: functional
[6] = test system: HepG2; test: Cytotoxicity against human HepG2 cells assessed as reduced cell viability at 4 ug/ml measured after 16 hrs by MTT assay; format: cell-based; details: hepg2, 16 h, dose 4 µg/ml
[7] = test system: Escherichia coli; test: Antibacterial activity against Escherichia coli ATCC 25922 assessed as inhibition of bacterial growth measured after 24 hrs by broth dilution method; format: functional
[8] = test system: Staphylococcus aureus; test: Antibacterial activity against Staphylococcus aureus ATCC 29213 assessed as inhibition of bacterial growth measured after 24 hrs by broth dilution method; format: functional
[9] = test system: RAW264.7; test: Cytotoxicity against mouse RAW264.7 cells assessed as reduced cell viability at 4 ug/ml measured after 16 hrs by MTT assay; format: cell-based; details: raw264.7, 16 h, dose 4 µg/ml
[10] = test system: Staphylococcus aureus; test: Antibacterial activity against Methycillin-resistant Staphylococcus aureus ATCC 43300 assessed as inhibition of bacterial growth measured after 24 hrs by broth dilution method; format: functional
[11] = test system: Staphylococcus aureus; test: Bactericidal activity against Staphylococcus aureus ATCC 29213 assessed as inhibition of bacterial growth measured after 96 hrs by broth dilution method; format: functional
[12] = test system: Staphylococcus aureus; test: Bactericidal activity against Staphylococcus aureus AD3 assessed as inhibition of bacterial growth measured after 96 hrs by broth dilution method; format: functional

Row | SMILES | MIC [1] [µg/mL] | MBC [2] [µg/mL] | MIC [3] [µg/mL] | MBC [4] [µg/mL] | MBC [5] [µg/mL] | Activity [6] | MIC [7] [µg/mL] | MIC [8] [µg/mL] | Activity [9] | MIC [10] [µg/mL] | MBC [11] [µg/mL] | MBC [12] [µg/mL]
1 | C=C[C@]1(C)C[C@@H](OC(=O)CSc2nnc(C)n2/N=C/c2ccc([N+](=O)[O-])cc2)[C@]2(C)[C@H](C)CC[C@]3(CCC(=O)[C@H]32)[C@@H](C)[C@@H]1O | 2 (≈ 3.21 µM) | 2 (≈ 3.21 µM) | 2 (≈ 3.21 µM) | 8 (≈ 12.8 µM) | > 64 | Non-Toxic | > 64 | 2 (≈ 3.21 µM) | Non-Toxic | 1 (≈ 1.6 µM) | 4 (≈ 6.41 µM) | 8 (≈ 12.8 µM)
2 | C=C[C@]1(C)C[C@@H](OC(=O)CSc2nnc(C)n2/N=C/c2cccc(C)c2)[C@]2(C)[C@H](C)CC[C@]3(CCC(=O)[C@H]32)[C@@H](C)[C@@H]1O | 1 (≈ 1.69 µM) | 2 (≈ 3.37 µM) | 2 (≈ 3.37 µM) | 4 (≈ 6.75 µM) | > 64 | Non-Toxic | > 64 | 1 (≈ 1.69 µM) | Non-Toxic | 1 (≈ 1.69 µM) | 2 (≈ 3.37 µM) | 4 (≈ 6.75 µM)
3 | C=C[C@]1(C)C[C@@H](OC(=O)CSc2nnc(C)n2/N=C/c2ccccc2[N+](=O)[O-])[C@]2(C)[C@H](C)CC[C@]3(CCC(=O)[C@H]32)[C@@H](C)[C@@H]1O | 2 (≈ 3.21 µM) | 1 (≈ 1.6 µM) | 2 (≈ 3.21 µM) | 8 (≈ 12.8 µM) | > 64 | Non-Toxic | > 64 | 1 (≈ 1.6 µM) | Non-Toxic | 0.5 (≈ 0.802 µM) | 4 (≈ 6.41 µM) | 8 (≈ 12.8 µM)
4 | C=C[C@]1(C)C[C@@H](OC(=O)CSc2nnc(C)n2/N=C/c2ccccc2)[C@]2(C)[C@H](C)CC[C@]3(CCC(=O)[C@H]32)[C@@H](C)[C@@H]1O | 1 (≈ 1.73 µM) | 1 (≈ 1.73 µM) | 2 (≈ 3.46 µM) | 4 (≈ 6.91 µM) | > 64 | Non-Toxic | > 64 | 1 (≈ 1.73 µM) | Non-Toxic | 0.5 (≈ 0.864 µM) | 2 (≈ 3.46 µM) | 4 (≈ 6.91 µM)
5 | C=C[C@]1(C)C[C@@H](OC(=O)CSc2nnc(C)n2/N=C/c2cccc(C#N)c2)[C@]2(C)[C@H](C)CC[C@]3(CCC(=O)[C@H]32)[C@@H](C)[C@@H]1O | 2 (≈ 3.31 µM) | 2 (≈ 3.31 µM) | 2 (≈ 3.31 µM) | 4 (≈ 6.62 µM) | > 64 | Non-Toxic | > 64 | 1 (≈ 1.66 µM) | Non-Toxic | 1 (≈ 1.66 µM) | 4 (≈ 6.62 µM) | 8 (≈ 13.2 µM)
6 | C=C[C@]1(C)C[C@@H](OC(=O)CSc2nnc(C)n2/N=C/c2ccccc2Cl)[C@]2(C)[C@H](C)CC[C@]3(CCC(=O)[C@H]32)[C@@H](C)[C@@H]1O | 1 (≈ 1.63 µM) | 2 (≈ 3.26 µM) | 2 (≈ 3.26 µM) | 4 (≈ 6.52 µM) | > 64 | Non-Toxic | > 64 | 1 (≈ 1.63 µM) | Non-Toxic | 1 (≈ 1.63 µM) | 2 (≈ 3.26 µM) | 4 (≈ 6.52 µM)
7 | C=C[C@]1(C)C[C@@H](OC(=O)CSc2nnc(C)n2/N=C/c2ccc(F)cc2)[C@]2(C)[C@H](C)CC[C@]3(CCC(=O)[C@H]32)[C@@H](C)[C@@H]1O | 1 (≈ 1.68 µM) | 2 (≈ 3.35 µM) | 2 (≈ 3.35 µM) | 4 (≈ 6.7 µM) | > 64 | Non-Toxic | > 64 | 1 (≈ 1.68 µM) | Non-Toxic | 1 (≈ 1.68 µM) | 4 (≈ 6.7 µM) | 4 (≈ 6.7 µM)
8 | C=C[C@]1(C)C[C@@H](OC(=O)CSc2nnc(C)n2/N=C/c2cccc([N+](=O)[O-])c2)[C@]2(C)[C@H](C)CC[C@]3(CCC(=O)[C@H]32)[C@@H](C)[C@@H]1O | 2 (≈ 3.21 µM) | 2 (≈ 3.21 µM) | 2 (≈ 3.21 µM) | 4 (≈ 6.41 µM) | > 64 | Non-Toxic | > 64 | 2 (≈ 3.21 µM) | Non-Toxic | 1 (≈ 1.6 µM) | 8 (≈ 12.8 µM) | 8 (≈ 12.8 µM)
9 | C=C[C@]1(C)C[C@@H](OC(=O)CSc2nnc(C)n2/N=C/c2ccccc2C)[C@]2(C)[C@H](C)CC[C@]3(CCC(=O)[C@H]32)[C@@H](C)[C@@H]1O | 1 (≈ 1.69 µM) | 2 (≈ 3.37 µM) | 2 (≈ 3.37 µM) | 4 (≈ 6.75 µM) | > 64 | Non-Toxic | > 64 | 1 (≈ 1.69 µM) | Non-Toxic | 1 (≈ 1.69 µM) | 2 (≈ 3.37 µM) | 4 (≈ 6.75 µM)
10 | C=C[C@]1(C)C[C@@H](OC(=O)CSc2nnc(C)n2/N=C/c2cccc(Cl)c2)[C@]2(C)[C@H](C)CC[C@]3(CCC(=O)[C@H]32)[C@@H](C)[C@@H]1O | 2 (≈ 3.26 µM) | 2 (≈ 3.26 µM) | 2 (≈ 3.26 µM) | 4 (≈ 6.52 µM) | > 64 | Non-Toxic | > 64 | 1 (≈ 1.63 µM) | Non-Toxic | 1 (≈ 1.63 µM) | 4 (≈ 6.52 µM) | 4 (≈ 6.52 µM)
11 | C=C[C@]1(C)C[C@@H](OC(=O)CSc2nnc(C)n2/N=C/c2ccc(Cl)cc2)[C@]2(C)[C@H](C)CC[C@]3(CCC(=O)[C@H]32)[C@@H](C)[C@@H]1O | 1 (≈ 1.63 µM) | 2 (≈ 3.26 µM) | 2 (≈ 3.26 µM) | 4 (≈ 6.52 µM) | > 64 | Non-Toxic | > 64 | 1 (≈ 1.63 µM) | Non-Toxic | 0.5 (≈ 0.815 µM) | 2 (≈ 3.26 µM) | 4 (≈ 6.52 µM)
12 | C=C[C@]1(C)C[C@@H](OC(=O)CSc2nnc(C)n2/N=C/c2ccc(N(CC)CC)cc2)[C@]2(C)[C@H](C)CC[C@]3(CCC(=O)[C@H]32)[C@@H](C)[C@@H]1O | 4 (≈ 6.15 µM) | 4 (≈ 6.15 µM) | 4 (≈ 6.15 µM) | 8 (≈ 12.3 µM) | > 64 | Non-Toxic | > 64 | 4 (≈ 6.15 µM) | Non-Toxic | 4 (≈ 6.15 µM) | 8 (≈ 12.3 µM) | 16 (≈ 24.6 µM)
13 | C=C[C@]1(C)C[C@@H](OC(=O)CSc2nnc(C)n2/N=C/c2cccc(O)c2)[C@]2(C)[C@H](C)CC[C@]3(CCC(=O)[C@H]32)[C@@H](C)[C@@H]1O | 1 (≈ 1.68 µM) | 1 (≈ 1.68 µM) | 2 (≈ 3.36 µM) | 4 (≈ 6.73 µM) | > 64 | Non-Toxic | > 64 | 0.5 (≈ 0.841 µM) | Non-Toxic | 0.5 (≈ 0.841 µM) | 2 (≈ 3.36 µM) | 4 (≈ 6.73 µM)
14 | C=C[C@]1(C)C[C@@H](OC(=O)CO)[C@]2(C)[C@H](C)CC[C@]3(CCC(=O)[C@H]32)[C@@H](C)[C@@H]1O [PLEUROMULIN] | 2 (≈ 5.28 µM) | 4 (≈ 10.6 µM) | 2 (≈ 5.28 µM) | 4 (≈ 10.6 µM) | > 64 | – | > 64 | 2 (≈ 5.28 µM) | – | 2 (≈ 5.28 µM) | 4 (≈ 10.6 µM) | 4 (≈ 10.6 µM)
